# Reference: the supplement of paper PMC10307832
# Assays:
# Assay in all cases: relative viability (nuclei count vs DMSO), 5 days (fraction); higher = more cells survive
# [1] = compound: O=C(CCCCCCC(=O)Nc1ccccc1)NO [Vorinostat]
# How it was run: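 Lung cancer cell lines received five library-drug doses (not always all listed) spaced by √10, pinned on vehicle-anchored 1536-well plates after an overnight stay at 37 °C. Five days later, with no medium change, nuclei were Hoechst-stained, imaged at 4× and counted with MetaXpress. Viability is treated-well nuclei relative to vehicle-well nuclei, as a median across plates. Passing plates had control CV below 25% and at least one doubling.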
# [2] = compound: O=C(CCCCCCC(=O)Nc1ccccc1)NO [Vorinostat] + CCNC(=O)c1noc(-c2cc(C(C)C)c(O)cc2O)c1-c1ccc(CN2CCOCC2)cc1 [Luminespib] (partner 0.01 µM)
# How it was run: (§1)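 Relative viability equals treated-well nuclei counts divided by vehicle-well nuclei counts. Counts came from 4× images of lung cancer cell lines grown in 1536-well plates for 5 days after pin-tool dosing on the day after seeding. Dosing used one drug alone or a fixed anchor-drug dose plus five library-drug doses (not always all listed) in √10 steps, and values are medians of duplicate plates.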
# [3] = compound: O=C(CCCCCCC(=O)Nc1ccccc1)NO [Vorinostat] + Cc1cc(Nc2cc(N3CCN(C)CC3)nc(Sc3ccc(NC(=O)C4CC4)cc3)n2)n[nH]1 [Tozasertib] (partner 0.1 µM)
# How it was run: as §1
# [4] = compound: O=C(CCCCCCC(=O)Nc1ccccc1)NO [Vorinostat] + CC1(C)CCC(c2ccc(Cl)cc2)=C(CN2CCN(c3ccc(C(=O)NS(=O)(=O)c4ccc(N[C@H](CCN5CCOCC5)CSc5ccccc5)c(S(=O)(=O)C(F)(F)F)c4)cc3)CC2)C1 [Navitoclax] (partner 0.5 µM)
# How it was run: as §1
# [5] = compound: O=C(CCCCCCC(=O)Nc1ccccc1)NO [Vorinostat] + C[C@@H](Oc1cc(-c2cnn(C3CCNCC3)c2)cnc1N)c1c(Cl)ccc(F)c1Cl [Crizotinib] (partner 1 µM)
# How it was run: as §1
# [6] = compound: O=C(CCCCCCC(=O)Nc1ccccc1)NO [Vorinostat] + Cc1nc(Nc2ncc(C(=O)Nc3c(C)cccc3Cl)s2)cc(N2CCN(CCO)CC2)n1 [Dasatinib] (partner 0.075 µM)
# How it was run: as §1
# [7] = compound: O=C(CCCCCCC(=O)Nc1ccccc1)NO [Vorinostat] + Nc1nc2[nH]cc(CCc3ccc(C(=O)N[C@@H](CCC(=O)O)C(=O)O)cc3)c2c(=O)[nH]1 [Pemetrexed] (partner 0.2 µM)
# How it was run: as §1
# [8] = compound: O=C(CCCCCCC(=O)Nc1ccccc1)NO [Vorinostat] + CS(=O)(=O)CCNCc1ccc(-c2ccc3ncnc(Nc4ccc(OCc5cccc(F)c5)c(Cl)c4)c3c2)o1 [Lapatinib] (partner 2 µM)
# How it was run: as §1
# [9] = compound: O=C(CCCCCCC(=O)Nc1ccccc1)NO [Vorinostat] + CC(=O)c1c(C)c2cnc(Nc3ccc(N4CCNCC4)cn3)nc2n(C2CCCC2)c1=O [Palbociclib] (partner 0.5 µM)
# How it was run: as §1
# [10] = compound: O=C(CCCCCCC(=O)Nc1ccccc1)NO [Vorinostat] + CS(=O)(=O)N1CCN(Cc2cc3nc(-c4cccc5[nH]ncc45)nc(N4CCOCC4)c3s2)CC1 [Pictilisib] (partner 1 µM)
# How it was run: as §1
# [11] = compound: O=C(CCCCCCC(=O)Nc1ccccc1)NO [Vorinostat] + COc1cc2c(Oc3ccc(NC(=O)C4(C(=O)Nc5ccc(F)cc5)CC4)cc3F)ccnc2cc1OCCCN1CCOCC1 [Foretinib] (partner 0.25 µM)
# How it was run: as §1
# [12] = compound: O=C(CCCCCCC(=O)Nc1ccccc1)NO [Vorinostat] + COc1cccc2cc(-c3nc([C@H]4CC[C@H](C(=O)O)CC4)n4ncnc(N)c34)[nH]c12 [OSI-027] (partner 0.5 µM)
# How it was run: as §1
# [13] = compound: O=C(CCCCCCC(=O)Nc1ccccc1)NO [Vorinostat] + Nc1ncn([C@H]2C[C@H](O)[C@@H](CO)O2)c(=O)n1 [Decitabine] (partner 2 µM)
# How it was run: as §1
# [14] = compound: O=C(CCCCCCC(=O)Nc1ccccc1)NO [Vorinostat] + O=C(c1cc(Cc2n[nH]c(=O)c3ccccc23)ccc1F)N1CCN(C(=O)C2CC2)CC1 [Olaparib] (partner 8 µM)
# How it was run: as §1
# [15] = compound: O=C(CCCCCCC(=O)Nc1ccccc1)NO [Vorinostat] + CC(C)C[C@H](NC(=O)[C@H](Cc1ccccc1)NC(=O)c1cnccn1)B(O)O [Bortezomib] (partner 0.002 µM)
# How it was run: as §1
# [16] = compound: O=C(CCCCCCC(=O)Nc1ccccc1)NO [Vorinostat] + N=C(N)NC(=N)NCCc1ccccc1 [Phenformin] (partner 250 µM)
# How it was run: as §1
# [17] = compound: O=C(CCCCCCC(=O)Nc1ccccc1)NO [Vorinostat] + CC(=O)Nc1cccc(-n2c(=O)n(C3CC3)c(=O)c3c(Nc4ccc(I)cc4F)n(C)c(=O)c(C)c32)c1 [Trametinib] (partner 0.02 µM)
# How it was run: as §1
cell line,measurement,setting,value
NCI-H1650,relative viability,[1]; 0.253 µM,1.03
same,relative viability,[1]; 0.8 µM,0.758
same,relative viability,"[1]; 1 µM, anchor plate",0.583
same,relative viability,[1]; 2.53 µM,0.325
same,relative viability,[1]; 8 µM,0.163
same,relative viability,[2]; first compound 0.253 µM,0.2
same,relative viability,[2]; first compound 0.8 µM,0.178
same,relative viability,[2]; first compound 2.53 µM,0.171
same,relative viability,[2]; first compound 8 µM,0.184
same,relative viability,[3]; first compound 0.253 µM,0.478
same,relative viability,[3]; first compound 0.8 µM,0.293
same,relative viability,[3]; first compound 2.53 µM,0.168
same,relative viability,[3]; first compound 8 µM,0.152
same,relative viability,[4]; first compound 0.253 µM,1.12
same,relative viability,[4]; first compound 0.8 µM,0.851
same,relative viability,[4]; first compound 2.53 µM,0.385
same,relative viability,[4]; first compound 8 µM,0.144
same,relative viability,[5]; first compound 0.253 µM,0.848
same,relative viability,[5]; first compound 0.8 µM,0.519
same,relative viability,[5]; first compound 2.53 µM,0.29
same,relative viability,[5]; first compound 8 µM,0.101
same,relative viability,[6]; first compound 0.253 µM,0.397
same,relative viability,[6]; first compound 0.8 µM,0.292
same,relative viability,[6]; first compound 2.53 µM,0.201
same,relative viability,[6]; first compound 8 µM,0.141
same,relative viability,[7]; first compound 0.253 µM,0.307
same,relative viability,[7]; first compound 0.8 µM,0.341
same,relative viability,[7]; first compound 2.53 µM,0.29
same,relative viability,[7]; first compound 8 µM,0.18
same,relative viability,[8]; first compound 0.253 µM,0.803
same,relative viability,[8]; first compound 0.8 µM,0.484
same,relative viability,[8]; first compound 2.53 µM,0.287
same,relative viability,[8]; first compound 8 µM,0.118
same,relative viability,[9]; first compound 0.253 µM,0.281
same,relative viability,[9]; first compound 0.8 µM,0.234
same,relative viability,[9]; first compound 2.53 µM,0.164
same,relative viability,[9]; first compound 8 µM,0.0922
same,relative viability,[10]; first compound 0.253 µM,0.542
same,relative viability,[10]; first compound 0.8 µM,0.283
same,relative viability,[10]; first compound 2.53 µM,0.181
same,relative viability,[10]; first compound 8 µM,0.124
same,relative viability,[11]; first compound 0.253 µM,1.1
same,relative viability,[11]; first compound 0.8 µM,1
same,relative viability,[11]; first compound 2.53 µM,0.648
same,relative viability,[11]; first compound 8 µM,0.14
same,relative viability,[12]; first compound 0.253 µM,0.581
same,relative viability,[12]; first compound 0.8 µM,0.36
same,relative viability,[12]; first compound 2.53 µM,0.167
same,relative viability,[12]; first compound 8 µM,0.145
same,relative viability,[13]; first compound 0.253 µM,0.351
same,relative viability,[13]; first compound 0.8 µM,0.359
same,relative viability,[13]; first compound 2.53 µM,0.27
same,relative viability,[13]; first compound 8 µM,0.135
same,relative viability,[14]; first compound 0.253 µM,0.737
same,relative viability,[14]; first compound 0.8 µM,0.62
same,relative viability,[14]; first compound 2.53 µM,0.316
same,relative viability,[14]; first compound 8 µM,0.16
same,relative viability,[15]; first compound 0.253 µM,0.22
same,relative viability,[15]; first compound 0.8 µM,0.178
same,relative viability,[15]; first compound 2.53 µM,0.179
same,relative viability,[15]; first compound 8 µM,0.142
same,relative viability,[16]; first compound 0.253 µM,0.412
same,relative viability,[16]; first compound 0.8 µM,0.393
same,relative viability,[16]; first compound 2.53 µM,0.164
same,relative viability,[16]; first compound 8 µM,0.14
same,relative viability,[17]; first compound 0.253 µM,0.609
same,relative viability,[17]; first compound 0.8 µM,0.542
same,relative viability,[17]; first compound 2.53 µM,0.175
same,relative viability,[17]; first compound 8 µM,0.0883
